This is an account of results in patent US11142526B2, “Spirocycle compounds and methods of making and using same” (H. Lundbeck A/S, priority 2017, dated 2021).

Where two headings read alike, the source gives them in different places.

Test [1] has as its target MAGL (Homo sapiens (Human), UniProt Q99685). Briefly: In vitro competitive activity-based protein profiling (gel-based, FP-Rh or HT-01 probe). The format is biochemical. On the procedure:
In Vitro Competitive Activity-Based Protein Profiling.
Proteomes (human prefrontal cortex or cell membrane fractions) (50 μL, 1.0 mg/mL total protein concentration) were preincubated with varying concentrations of inhibitors at 37° C. After 30 min, FP-Rh or HT-01 (1.0 μL, 50 μM in DMSO) was added and the mixture was incubated for another 30 min at room temperature. Reactions were quenched with SDS loading buffer (15 μL—4×) and run on SDS-PAGE.

Test [2] deals with MAGL (Mus musculus (Mouse), UniProt O35678). The experiment in a line: In vitro competitive activity-based protein profiling, mouse brain proteome. Particulars: for inhibition at 1 µM: mouse; for IC50: mouse brain. The class given is biochemical.
MAGL (Mus musculus (Mouse), UniProt O35678), sequence (O35678 whole entry): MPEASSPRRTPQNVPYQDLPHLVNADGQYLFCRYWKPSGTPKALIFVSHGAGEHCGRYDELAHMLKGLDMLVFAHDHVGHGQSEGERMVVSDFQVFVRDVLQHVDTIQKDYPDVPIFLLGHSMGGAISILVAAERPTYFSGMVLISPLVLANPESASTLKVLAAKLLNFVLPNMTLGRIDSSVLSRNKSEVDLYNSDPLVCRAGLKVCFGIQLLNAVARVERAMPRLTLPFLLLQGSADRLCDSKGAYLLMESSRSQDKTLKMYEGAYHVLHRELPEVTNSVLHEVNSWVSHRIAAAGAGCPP
[3] abbreviates: human PFC (prefrontal cortex), read-out: MAGL % Inhibition at 1 μM (human PFC).
[4] abbreviates: human PC3, read-out: MAGL % Inhibition at 1 μM (human PC3).

MAGL (Homo sapiens (Human), UniProt Q99685), sequence (Q99685 whole entry): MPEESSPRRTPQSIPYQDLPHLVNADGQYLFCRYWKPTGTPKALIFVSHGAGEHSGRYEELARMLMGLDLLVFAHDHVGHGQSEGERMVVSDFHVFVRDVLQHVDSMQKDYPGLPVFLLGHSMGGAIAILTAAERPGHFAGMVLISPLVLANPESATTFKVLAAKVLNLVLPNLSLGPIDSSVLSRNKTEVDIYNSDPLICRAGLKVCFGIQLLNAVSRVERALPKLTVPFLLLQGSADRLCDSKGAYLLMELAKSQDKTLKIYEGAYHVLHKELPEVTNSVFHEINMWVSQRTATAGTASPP

In general, inhibition refers to the change of the read-out against control, counted positive when it falls. On to `O=C(OC(C(F)(F)F)C(F)(F)F)N1CCC2(CCN(Cc3cccnn3)C2)CC1` [Example 9, 1,1,1,3,3,3-Hexafluoropropan-2-yl 2-(pyridazin-3-ylmethyl)-2,8-diazaspiro[4.5]decane-8-carboxylate], for which the inhibition at 1 µM on MAGL [1] (setting [3]) was more than 75%. In general, IC50 refers to the concentration that gives 50% inhibition. Turning to `O=C(OC(C(F)(F)F)C(F)(F)F)N1CCC2(CCCN2C(=O)C(F)(F)c2ncccn2)CC1` [Example 32, 1,1,1,3,3,3-Hexafluoropropan-2-yl 1-(2,2-difluoro-2-(pyrimidin-2-yl)acetyl)-1,8-diazaspiro[4.5]decane-8-carboxylate], the inhibition at 1 µM on MAGL [1] (setting [4]) and at MAGL [1] (setting [3]) was more than 75% in each case. For the same compound, the IC50 at MAGL [1] (human PC3, read-out: MAGL Human PC3 (IC50)) was less than 100 nM. As to `O=C(Cc1nc(C(F)(F)F)ccc1CN1CCCC12CCN(C(=O)OC(C(F)(F)F)C(F)(F)F)CC2)NS(=O)(=O)C1CC1` [Example 35, 1,1,1,3,3,3-Hexafluoropropan-2-yl 1-((2-(2-(cyclopropanesulfonamido)-2-oxoethyl)-6-(trifluoromethyl)pyridin-3-yl)methyl)-1,8-diazaspiro[4.5]decane-8-carboxylate], the inhibition at 1 µM at MAGL [1] (setting [4]) was more than 75%. In the case of `O=C(OC(C(F)(F)F)C(F)(F)F)N1CCC2(CCCN2C(=O)c2cnn(-c3ccc(Cl)cc3)c2)CC1` [Example 78, 1,1,1,3,3,3-Hexafluoropropan-2-yl 1-(1-(4-chlorophenyl)-1H-pyrazole-4-carbonyl)-1,8-diazaspiro[4.5] decane-8-carboxylate], on MAGL [2], the inhibition at 1 µM was more than 75% and the IC50 is less than 100 nM. The matching figures for `O=C(OC(C(F)(F)F)C(F)(F)F)N1CCC2(CCCN2C(=O)c2cc3ccccc3s2)CC1` [Example 80, 1,1,1,3,3,3-Hexafluoropropan-2-yl 1-(benzo[b]thiophene-2-carbonyl)-1,8-diazaspiro[4.5] decane-8-carboxylate]: more than 75% and less than 100 nM. For the compound `CC(C)n1ccc(C(=O)N2CCCC23CCN(C(=O)OC(C(F)(F)F)C(F)(F)F)CC3)n1` [Example 81, 1,1,1,3,3,3-Hexafluoropropan-2-yl 1-(1-isopropyl-1H-pyrazole-3-carbonyl)-1,8-diazaspiro[4.5] decane-8-carboxylate], at MAGL [2], the inhibition at 1 µM was more than 75% and the IC50 is less than 100 nM. The matching figures for `O=C(OC(C(F)(F)F)C(F)(F)F)N1CCC2(CCCN2C(=O)c2ccn(-c3ccccc3)n2)CC1` [Example 82, 1,1,1,3,3,3-Hexafluoropropan-2-yl 1-(1-phenyl-1H-pyrazole-3-carbonyl)-1,8-diazaspiro[4.5] decane-8-carboxylate]: more than 75% and less than 100 nM. The matching figures for `O=C(OC(C(F)(F)F)C(F)(F)F)N1CCC2(CCCN2C(=O)c2cc3ccccc3o2)CC1` [Example 83, 1,1,1,3,3,3-Hexafluoropropan-2-yl 1-(benzofuran-2-carbonyl)-1,8-diazaspiro[4.5] decane-8-carboxylate]: more than 75% and less than 100 nM. The matching figures for `O=C(OC(C(F)(F)F)C(F)(F)F)N1CCC2(CCCN2C(=O)c2nc3ccccc3o2)CC1` [Example 84, 1,1,1,3,3,3-Hexafluoropropan-2-yl 1-(benzo[d]oxazole-2-carbonyl)-1,8-diazaspiro[4.5] decane-8-carboxylate]: more than 75% and less than 100 nM. Regarding `O=C(OC(C(F)(F)F)C(F)(F)F)N1CCC2(CCCN2C(=O)c2ccc3[nH]ccc3c2)CC1` [Example 89, 1,1,1,3,3,3-Hexafluoropropan-2-yl 1-(1H-indole-5-carbonyl)-1,8-diazaspiro[4.5] decane-8-carboxylate], on MAGL [2], the inhibition at 1 µM is more than 75% and the IC50 was less than 100 nM. Taken in the same sequence, the figures for `O=C(OC(C(F)(F)F)C(F)(F)F)N1CCC2(CCCN2C(=O)c2ccc3sccc3c2)CC1` [Example 90, 1,1,1,3,3,3-Hexafluoropropan-2-yl 1-(benzo[b]thiophene-5-carbonyl)-1,8-diazaspiro[4.5] decane-8-carboxylate] were more than 75% and less than 100 nM.

On MAGL [2], `Cc1c(C(=O)N2CCCC23CCN(C(=O)OC(C(F)(F)F)C(F)(F)F)CC3)sc2ccccc12` [Example 94, 1,1,1,3,3,3-Hexafluoropropan-2-yl 1-(3-methylbenzo[b]thiophene-2-carbonyl)-1,8-diazaspiro[4.5] decane-8-carboxylate] gave an inhibition at 1 µM of more than 75% and an IC50 of less than 100 nM.

As for `O=C(OC(C(F)(F)F)C(F)(F)F)N1CCC2(CCCN2C(=O)c2cc3cc(Cl)ccc3s2)CC1` [Example 95, 1,1,1,3,3,3-Hexafluoropropan-2-yl 1-(5-chlorobenzo[b]thiophene-2-carbonyl)-1,8-diazaspiro[4.5] decane-8-carboxylate], on MAGL [2], the inhibition at 1 µM is more than 75% and the IC50 is less than 100 nM. Compound `O=C(OC(C(F)(F)F)C(F)(F)F)N1CCC2(CCCN2C(=O)c2sc3ccccc3c2Cl)CC1` [Example 97, 1,1,1,3,3,3-Hexafluoropropan-2-yl 1-(3-chlorobenzo[b]thiophene-2-carbonyl)-1,8-diazaspiro[4.5] decane-8-carboxylate] gave an inhibition at 1 µM on MAGL [2] of more than 75%. At MAGL [2], `O=C(OC(C(F)(F)F)C(F)(F)F)N1CCC2(CCCN2C(=O)c2cc3cccc(C(F)(F)F)c3s2)CC1` [Example 98, 1,1,1,3,3,3-Hexafluoropropan-2-yl 1-(7-(trifluoromethyl)benzo[b]thiophene-2-carbonyl)-1,8-diazaspiro[4.5] decane-8-carboxylate] registered an inhibition at 1 µM of more than 75% and an IC50 of less than 100 nM. At MAGL [2], `O=C(OC(C(F)(F)F)C(F)(F)F)N1CCC2(CCCN2C(=O)c2cc3cc(F)ccc3s2)CC1` [Example 99, 1,1,1,3,3,3-Hexafluoropropan-2-yl 1-(5-fluorobenzo[b]thiophene-2-carbonyl)-1,8-diazaspiro[4.5] decane-8-carboxylate] had an inhibition at 1 µM of more than 75% and an IC50 of less than 100 nM.

On MAGL [2], `O=C(OC(C(F)(F)F)C(F)(F)F)N1CCC2(CCCN2C(=O)c2cc3cc(C(F)(F)F)ccc3[nH]2)CC1` [Example 100, 1,1,1,3,3,3-Hexafluoropropan-2-yl 1-(5-(trifluoromethyl)-1H-indole-2-carbonyl)-1,8-diazaspiro[4.5] decane-8-carboxylate] gave an inhibition at 1 µM of more than 75%. Still for that read-out and setting: next, `O=C(OC(C(F)(F)F)C(F)(F)F)N1CCC2(CCCN2C(=O)c2cc3ccc(F)cc3s2)CC1` [Example 103, 1,1,1,3,3,3-Hexafluoropropan-2-yl 1-(6-fluorobenzo[b]thiophene-2-carbonyl)-1,8-diazaspiro[4.5] decane-8-carboxylate]: more than 75%.

As to `O=C(OC(C(F)(F)F)C(F)(F)F)N1CCC2(CCN(Cc3ccnnc3)C2)CC1` [Example 106, 1,1,1,3,3,3-Hexafluoropropan-2-yl 2-(pyridazin-4-ylmethyl)-2,8-diazaspiro [4.5]decane-8-carboxylate], the inhibition at 1 µM at MAGL [1] (setting [3]) was more than 75%. `O=C(OC(C(F)(F)F)C(F)(F)F)N1CCC2(CCCN2C(=O)c2cc3cc(F)ccc3[nH]2)CC1` [Example 107, 1,1,1,3,3,3-Hexafluoropropan-2-yl 1-(5-fluoro-1H-indole-2-carbonyl)-1,8-diazaspiro[4.5] decane-8-carboxylate]: at MAGL [2], the inhibition at 1 µM is more than 75% and the half-inhibitory concentration (IC50) was less than 100 nM.

`Cc1cccc2cc(C(=O)N3CCCC34CCN(C(=O)OC(C(F)(F)F)C(F)(F)F)CC4)[nH]c12` [Example 108, 1,1,1,3,3,3-Hexafluoropropan-2-yl 1-(7-methyl-1H-indole-2-carbonyl)-1,8-diazaspiro[4.5] decane-8-carboxylate]: at MAGL [2], the inhibition at 1 µM was more than 75% and the IC50 is less than 100 nM.

At MAGL [2], `O=C(OC(C(F)(F)F)C(F)(F)F)N1CCC2(CCCN2C(=O)c2cc3cc(Cl)c(Cl)cc3[nH]2)CC1` [Example 111, 1,1,1,3,3,3-Hexafluoropropan-2-yl 1-(5,6-dichloro-1H-indole-2-carbonyl)-1,8-diazaspiro[4.5] decane-8-carboxylate] returned an inhibition at 1 µM of more than 75% and an IC50 of less than 100 nM. The matching figures for `CC(C)(C)c1cc(CN2CCC3(CCN(C(=O)OC(C(F)(F)F)C(F)(F)F)CC3)C2)n(-c2ccccc2Cl)n1` [Example 217, 1,1,1,3,3,3-Hexafluoropropan-2-yl 2-((3-(t-butyl)-1-(2-chlorophenyl)-1H-pyrazol-5-yl)methyl)-2,8-diazaspiro[4.5]decane-8-carboxylate]: more than 75% and less than 100 nM. On MAGL [2], `CC(C)n1cc(CN2CCCC23CCN(C(=O)OC(C(F)(F)F)C(F)(F)F)CC3)c(-c2cc(Cl)cc(Cl)c2)n1` [Example 220, 1,1,1,3,3,3-Hexafluoropropan-2-yl 1-((3-(3,5-dichlorophenyl)-1-isopropyl-1H-pyrazol-4-yl)methyl)-1,8-diazaspiro[4.5]decane-8-carboxylate] had an inhibition at 1 µM of more than 75%. In the case of `O=C(OC(C(F)(F)F)C(F)(F)F)N1CCC2(CCCN2Cc2cc3cc(Cl)ccc3[nH]2)CC1` [Example 224, 1,1,1,3,3,3-Hexafluoropropan-2-yl 1-((5-chloro-1H-indol-2-yl)methyl)-1,8-diazaspiro[4.5]decane-8-carboxylate], on MAGL [2], the inhibition at 1 µM is more than 75% and the IC50 was less than 100 nM. Consider `O=C(OC(C(F)(F)F)C(F)(F)F)N1CCC2(CCCN2Cc2cncs2)CC1` [Example 225, 1,1,1,3,3,3-Hexafluoropropan-2-yl 1-(thiazol-5-ylmethyl)-1,8-diazaspiro [4.5]decane-8-carboxylate], for which the inhibition at 1 µM at MAGL [2] was more than 75%.
